Experimental data from ChEMBL document CHEMBL1125711, “Flavins as potential antimalarials. 2. 3-Methyl-10-(substituted-phenyl) flavins” (J Med Chem, 1991).

Columns and labels:
[1] = system: Mus musculus; test: Increase in mean survival days was determined in mice after ip administration of 50 mg/kg; toxic; assay type: functional; details: route intraperitoneal
[2] = system: Mus musculus; test: Increase in mean survival days was determined in mice after ip administration of 70 mg/kg; toxic; assay type: functional; details: route intraperitoneal
[3] = system: Mus musculus; test: Increase in mean survival days was determined in mice after ip administration of 40 mg/kg; toxic; assay type: functional; details: route intraperitoneal
[4] = system: Plasmodium vinckei vinckei; test: Antimalarial activity against Plasmodium vinckei V52 after 30 mg/kg intraperitoneal dose
[5] = system: Mus musculus; test: Antimalarial activity was evaluated against Plasmodium vinckei vinckei V52 after intraperitoneal administration at dose 50 mg/kg; assay type: functional
[6] = system: Mus musculus; test: Increase in mean survival days was determined in mice after ip administration of 10 mg/kg; assay type: functional; details: route intraperitoneal
[7] = system: Plasmodium vinckei vinckei; test: Antimalarial activity against Plasmodium vinckei V52 on 70 mg/kg intraperitoneal dose; assay type: functional
[8] = system: Mus musculus; test: Increase in mean survival days was determined in mice after ip administration of 30 mg/kg; assay type: functional; details: route intraperitoneal
[9] = system: Plasmodium vinckei vinckei; test: Antimalarial activity against Plasmodium vinckei V52 on 10 mg/kg intraperitoneal dose; assay type: functional
[10] = system: Mus musculus; test: Antimalarial activity was evaluated against Plasmodium vinckei vinckei V52 after intraperitoneal administration at dose 40 mg/kg; assay type: functional
[11] = system: Mus musculus; test: Antimalarial activity was evaluated against Plasmodium vinckei V52 after intraperitoneal administration at dose 20 mg/kg; assay type: functional
[12] = system: Mus musculus; test: Increase in mean survival days was determined in mice after ip administration of 20 mg/kg; assay type: functional; details: route intraperitoneal
[13] = system: Mus musculus; test: Antimalarial activity was evaluated against Plasmodium vinckei vinckei V52 after intraperitoneal administration at dose 25 mg/kg; assay type: functional
[14] = system: Mus musculus; test: Antimalarial activity was evaluated against Plasmodium vinckei vinckei V52 after intraperitoneal administration at dose 30 mg/kg; assay type: functional
[15] = species on record: Mus musculus; test: Effective dose required to obtain a parasitaemia of 40% 48 hours after treatment in mice; assay type: functional
[16] = system: Mus musculus; test: Antimalarial activity was evaluated against Plasmodium vinckei V52 after intraperitoneal administration at dose 15 mg/kg; assay type: functional
[17] = system: Mus musculus; test: Increase in mean survival days was determined in mice after ip administration of 15 mg/kg; assay type: functional; details: route intraperitoneal
[18] = system: Plasmodium vinckei vinckei; test: Increase in mean survival days of Plasmodium inoculated mice (Mus musculus) after 70 mg/Kg intraperitoneal dose; assay type: functional
[19] = system: Mus musculus; test: Antimalarial activity was evaluated against Plasmodium vinckei V52 after intraperitoneal administration at dose 70 mg/kg; assay type: functional
[20] = system: Mus musculus; test: Antimalarial activity was evaluated against Plasmodium vinckei vinckeii V52 after intraperitoneal administration at dose 60 mg/kg; assay type: functional
[21] = system: Mus musculus; test: Antimalarial activity was evaluated against Plasmodium vinckei V52 after intraperitoneal administration at dose 30 mg/kg; assay type: functional
[22] = system: Mus musculus; test: Increase in mean survival days was determined in mice after ip administration of 60 mg/kg; assay type: functional; details: route intraperitoneal
[23] = system: Mus musculus; test: Antimalarial activity was evaluated against Plasmodium vinckei V52 after intraperitoneal administration at dose 10 mg/kg; assay type: functional
[24] = system: Plasmodium vinckei vinckei; test: Antimalarial activity against Plasmodium vinckei V52 after 20 mg/kg intraperitoneal dose; assay type: functional
[25] = system: Mus musculus; test: Increase in mean survival days was determined in mice after ip administration of 25 mg/kg; toxic; assay type: functional; details: route intraperitoneal
[26] = system: Mus musculus; test: Increase in mean survival days was determined in mice after ip administration of 20 mg/kg; toxic; assay type: functional; details: route intraperitoneal
[27] = system: Mus musculus; test: Antimalarial activity was evaluated against Plasmodium vinckei V52 after intraperitoneal administration at dose 60 mg/kg; assay type: functional
[28] = system: Mus musculus; test: Antimalarial activity was evaluated against Plasmodium vinckei vinckei V52 after intraperitoneal administration at dose 70 mg/kg; assay type: functional
[29] = species on record: Mus musculus; test: Effective dose required to obtain a parasitaemia of 40% 48 hours after treatment in mice.; assay type: functional
[30] = system: Mus musculus; test: Antimalarial activity was evaluated against Plasmodium vinckei vinckei V52 after intraperitoneal administration at dose 10 mg/kg; assay type: functional
[31] = system: Mus musculus; test: Increase in mean survival days was determined in mice after ip administration of 50 mg/kg; assay type: functional; details: route intraperitoneal
[32] = system: Plasmodium vinckei vinckei; test: Antimalarial activity against Plasmodium vinckei V52 on 30 mg/kg intraperitoneal dose; assay type: functional
[33] = system: Mus musculus; test: Antimalarial activity was evaluated against Plasmodium vinckei V52 after intraperitoneal administration at dose 50 mg/kg; assay type: functional

| SMILES | Cured [5] [%] | Mean survival days [6] [days] | Cured [7] [%] | Mean survival days [8] [days] | Cured [9] [%] | Cured [10] [%] | Cured [11] [%] | Mean survival days [12] [days] | Cured [13] [%] | Mean survival days [18] [days] | Cured [21] [%] | Mean survival days [22] [days] | Cured [27] [%] | ED40 [29] | Mean survival days [31] [days] | also measured |
| --- | --- | --- | --- | --- | --- | --- | --- | --- | --- | --- | --- | --- | --- | --- | --- | --- |
| Cc1ccc(-n2c3nc(=O)n(C)c(=O)c-3nc3ccccc32)c(C)c1 | 0 | 0.4 | 0 | 1.3 | 0 | 40 | – | – | – | – | – | – | – | – | – | Mean survival days [1]: -2 days; Mean survival days [2]: -2 days; Mean survival days [3]: -1.7 days; Cured [4]: 20% |
| Cc1cc(Cl)cc(-n2c3nc(=O)n(C)c(=O)c-3nc3ccccc32)c1 | 100 | 0.2 | 100 | – | 0 | 100 | 80 | 1 | 100 | – | – | – | – | – | – | Cured [14]: 100%; ED40 [15]: 85.7 µmol/kg; Cured [16]: 60%; Mean survival days [17]: 0.5 days |
| Cn1c(=O)nc2n(-c3cccc([N+](=O)[O-])c3)c3ccccc3nc-2c1=O | – | – | – | – | – | – | – | – | – | -0.5 | 0 | 1 | – | – | – | Cured [19]: 0%; Cured [20]: 0%; Cured [23]: 0% |
| CCc1ccccc1-n1c2nc(=O)n(C)c(=O)c-2nc2ccccc21 | – | 0 | – | – | 0 | – | – | – | 0 | – | – | – | – | – | – | Cured [24]: 0%; Mean survival days [25]: -2 days; Mean survival days [26]: -2 days |
| Cc1ccc(-n2c3nc(=O)n(C)c(=O)c-3nc3ccccc32)cc1C | 20 | 0.3 | – | 0.8 | – | – | 0 | 0.2 | – | – | 0 | 0.5 | 60 | 210 µmol/kg | 0.3 | Cured [28]: 100%; Cured [30]: 0% |
| Cn1c(=O)nc2n(-c3ccccc3)c3ccccc3nc-2c1=O | – | 0 | 60 | 0 | 0 | – | – | – | – | 1 | – | 0.5 | 20 | 248 nM/kg | 0.3 | Cured [32]: 0%; Cured [33]: 0% |
